Assay results published in US10507207B2, “Non-nucleosidic inhibitors of reverse transcriptase as antagonists of cell proliferation and inducers of cell differentiation” (ISTITUTO SUPERIORE DI SANITA, priority 2001, dated 2019).

Assays:
[1] = tested on: HT-29 colon carcinoma cells; assay: Cell proliferation by cell counting; type: cell-based, human; conditions: 350 μM nevirapine
Text: (§1) Samples were withdrawn at specific times and cells were counted in nevirapine-exposed and control (DMSO-exposed) cultures. […] Saos-2 osteosarcoma cells were the most slowly responsive type, and only after 5 days of exposure did the growth rate begin to decrease compared to control cultures.

NB4 cells [2] = assay: NBT dye reduction assay; type: cell-based, human; conditions: NB4, Nev 350 μM, 4 days
Kasumi-1 cells = assay: Growth, viable cell count; type: cell-based, human; conditions: Kasumi-1, Nev 350 μM, 4 days
teratocarcinoma F9 cells = assay: Differentiation of F9 cells (morphology, collagen type IV immunofluorescence); type: cell-based, murine; conditions: IF after 96 h
Protocol: After 96 h, samples were fixed and processed for IF of collagen type IV (α1) chain (FIG. 5c, FIG. 5g, FIG. 5k) and DAPI staining of nuclei (FIG. 5b, FIG. 5f, FIG. 5j); pictures are merged in FIG. 5d, FIG. 5h and FIG. 5l (100× objective).

AML #2 = assay: Growth, viable cell count; type: cell-based, human; conditions: AML #2, Nev 350 μM, 4 days
ascite tumor = assay: BALB/C mice inoculated with ascite tumor; type: in vivo; conditions: nevirapine 1 mg/mouse/day intraperitoneally for seven days from day of inoculation; controls 5/5 tumor
Protocol: Procedure: 10 BALB/C mice were inoculated intraperitoneally (twice) with ascite tumor cells by injecting 0.2 ml of ascite withdrawn from an animal inoculated 8 days before. […] Mice were treated continuously with nevirapine for seven days.

NB4 cells [3] = assay: Growth, viable cell count; type: cell-based, human; conditions: NB4, Nev 350 μM, 4 days
[4] = tested on: human acute myeloid leukemia (AML) cells; assay: NBT dye reduction assay, summary over Table 2; type: cell-based; conditions: nevirapine treatment vs control (Table 2)
cyclin D1 in HT-29 = assay: Western immunoblotting of cyclin D1; type: cell-based, human; conditions: 72 h nevirapine vs non-exposed controls
Text: (§2) FIG. 3A. Cell cycle analysis in control and nevirapine-exposed cells. […] In the U343 glioma cell line, the cell cycle was separately analysed in the diploid cell fraction (representing about ⅔ of all cells) and in the remaining fraction (about ⅓) which develops aneuploidy. FIG. 3B. […] The filter was reprobed with anti-actin antibody to control equal loading (lower panel).

cyclin D1 in MCF-7 = assay: Western immunoblotting of cyclin D1; type: cell-based, human; conditions: 72 h nevirapine vs non-exposed controls
Text: as §2

[5] = tested on: cyclin D1 in U343 Mg glioma; assay: Western immunoblotting of cyclin D1; type: cell-based, human; conditions: 72 h nevirapine vs non-exposed controls, data not shown
Text: as §2

HL60 cells [6] = assay: Growth, viable cell count; type: cell-based, human; conditions: HL60, Nev 350 μM, 4 days
HL60 cells [7] = assay: Cytofluorimetric analysis of cell surface markers; type: cell-based, human; conditions: HL60, NEV 450 μM, 4 days
Text: The induction of CD11b is associated with granulocytic differentiation, CD14 is considered a monocytic specific antigen and CD15 is a myelomonocytic antigen. Simultaneous induction of CD14 and CD11b relates to monocytic differentiation. […] In nevirapine-treated NB4 and HL60 cells, a strong induction of expression of CD15, and, to a lesser degree, CD11b and CD14 markers was detected.

F9 teratocarcinoma cells = assay: Cell proliferation by cell counting; type: cell-based, murine; conditions: 350 μM nevirapine, after 120 h of exposure
Protocol: NIH/3T3 embryo fibroblasts and F9 teratocarcinoma cells were cultured in DMEM containing 10-20% fetal serum and two concentrations of efavirenz, i.e. 10 and 20 μM, diluted from a stock solution (10 mM) in 100% DMSO. Cells were plated at a density of 2-5×10^4 in 35 mm Petri dishes and exposed to efavirenz 5-6 hours later. Samples were withdrawn at specific times and cells were counted in efavirenz-exposed compared to parallel non-exposed cell cultures.

[8] = tested on: Saos-2 osteosarcoma cells; assay: Cell proliferation by cell counting; type: cell-based, human; conditions: 350 μM nevirapine vs control cultures
Protocol: as §1
The effect of efavirenz was further tested in human HeLa adenocarcinoma and Saos-2 osteosarcoma cells. Both cell lines were cultured in the conditions described above (Example 6). To establish if prolonged exposure to the drug improved the effectiveness of growth inhibition, both cell lines were exposed to efavirenz in two subsequent cycles: during the 1st cycle cells were continuously exposed to 20 μM efavirenz for 5 days; cells were then diluted, reseeded again and the 2nd cycle exposure was initiated the following day with fresh drug. […] The inhibitory effect was time-dependent, since in both HeLa and Saos-2 cultures, the 1st cycle of exposure (5 days) yielded a 1.6- and 1.5-fold reduction, respectively, whereas a 5- and 4-fold reduction was obtained in the 2nd cycle (carried out until day 20 from the onset of exposure).

endogenous RT activity = assay: PCR-based functional RT activity assay (MS2 RNA) with F9 lysate; type: biochemical, murine; conditions: cell lysate pre-incubated with 100 μM
Text: FIG. 1: Reverse transcriptase in murine and human cell lines. FIG. 1A. […] Lanes M, DNA molecular weight markers; lane 23, positive control reaction with commercial Rt. FIG. 1B. Western analysis of RT proteins (upper panels) and α-tubulin (lower panels) in WCE and nuclei. WCE were from: F9 (lane 1), NIH/3T3 (lane 2), MCF7 (lane 3), MDA-231 (lane 4), NB4 (lane 5), HL60 (lane 6) and ML2 blasts (lane 7). Nuclear extracts were from: F9 (lane 1), MCF7 (lane 2), MDA-231 (lane 3), NIH 3T3 (lane 4), HL60 (lane 5) and NB4 (lane 6).
The RT enzymatic activity, which is the target of the inhibitors described herein, has been detected in all cell lines, of both murine and human origin, that have been tested in this work using a PCR-based assay. […] The presence of RT enzyme in tumor cells is further confirmed by Western blot analysis.

NB4 cells [9] = assay: Morphological differentiation, Wright-Giemsa staining; type: cell-based, human; conditions: five days of nevirapine treatment (400 μM)

Cc1ccnc2c1NC(=O)c1cccnc1N2C1CC1 [nevirapine, 5,11-dihydro-11-cyclopropyl-4-methyl-6H-dipyrido-[3,2-b:2′,3′-e][1,4]diazepin-6-one]
effectiveness of proliferation suppression compared with F9 [1]: comparable effectiveness
NBT+ (%) (NB4 cells [2]): 37.2 ± 1.4%
Viable cells N^0 × 10^5 (Kasumi-1 cells): 4.5 ± 0.9 × 10^5
synthesis of collagen type IV(α1) chain (teratocarcinoma F9 cells): increased synthesis
Viable cells N^0 × 10^5 (AML #2): 1.2 ± 0.1 × 10^5
treated animals remaining healthy with no evidence of tumor growth (ascite tumor): ⅗
Viable cells N^0 × 10^5 (NB4 cells [3]): 2.6 ± 0.4 × 10^5
increase in the number of positive cells in the NBT dye reduction assay [4]: 2.0-3.5 fold
cyclin D1 levels (cyclin D1 in HT-29): substantial decrease
cyclin D1 levels (cyclin D1 in MCF-7): substantial decrease
cyclin D1 levels [5]: substantial decrease
Viable cells N^0 × 10^5 (HL60 cells [6]): 4.7 ± 1.1 × 10^5
CD11b mean fluorescence intensity (HL60 cells [7]): 16.6 AU
CD14 mean fluorescence intensity (HL60 cells [7]): 45.3 AU
CD15 mean fluorescence intensity (HL60 cells [7]): 1298.1 AU
reduction in the proliferation rate (F9 teratocarcinoma cells): 5 fold
exposure after which the growth rate begins to decrease [8]: 5 days
RT activity, 112 bp-product (endogenous RT activity): abolished
morphology (NB4 cells [9]): myelomonocytic-like morphology was evident
